# In patent US6492137B1, “Response element compositions and assays employing same” (The Salk Institute for Biological Studies, priority 1989, dated 2002):
# Tests used:
# TR = assay: Cotransfection of TR with construct βRE1 in CV-1 cells; format: cell-based; conditions: cognate ligand
# Source text: (§1) Inspection of the sequences of βRE1, βRE2, and βRE3 (see FIG. 2b) identifies a tandem repeat of the 6 bp motif. The center to center separation of 11 bp between these repeats is one turn of the DNA helix. […] Apparently, a single half site element of the RARβ gene would reciprocally be responsive to the TR, ER, and/or other members of the receptor superfamily.
# GR = target: T1, GR (Homo sapiens, UniProt P04150); assay: Cotransfection of GR with construct βRE1 in CV-1 cells; format: cell-based; conditions: absence or addition of the appropriate ligand
# T1 construct: expressed in transfected cells; host or cells: CV-1 (monkey kidney)
# T1 sequence (P04150 1-777): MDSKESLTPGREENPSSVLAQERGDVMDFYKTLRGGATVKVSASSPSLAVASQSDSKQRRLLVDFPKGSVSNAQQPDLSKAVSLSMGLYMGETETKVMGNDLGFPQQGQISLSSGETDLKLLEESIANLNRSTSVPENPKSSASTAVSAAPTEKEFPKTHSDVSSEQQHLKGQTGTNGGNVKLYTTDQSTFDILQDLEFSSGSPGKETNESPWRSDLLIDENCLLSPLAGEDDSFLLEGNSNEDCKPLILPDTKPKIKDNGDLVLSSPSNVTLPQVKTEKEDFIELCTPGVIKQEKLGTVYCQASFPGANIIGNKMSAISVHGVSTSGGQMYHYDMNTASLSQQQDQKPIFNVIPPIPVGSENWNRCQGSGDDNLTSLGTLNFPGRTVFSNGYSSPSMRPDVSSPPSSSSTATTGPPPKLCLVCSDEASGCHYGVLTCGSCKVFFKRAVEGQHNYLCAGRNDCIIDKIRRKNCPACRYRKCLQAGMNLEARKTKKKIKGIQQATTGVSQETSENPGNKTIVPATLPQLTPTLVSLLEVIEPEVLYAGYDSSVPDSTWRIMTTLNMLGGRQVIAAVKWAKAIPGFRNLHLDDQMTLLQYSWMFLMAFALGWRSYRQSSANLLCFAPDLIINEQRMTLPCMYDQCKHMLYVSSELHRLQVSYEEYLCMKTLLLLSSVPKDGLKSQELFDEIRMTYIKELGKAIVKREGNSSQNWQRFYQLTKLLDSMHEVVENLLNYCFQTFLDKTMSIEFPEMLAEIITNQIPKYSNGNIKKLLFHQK
# Source text: as §1
# RAR = target: T2, RAR (Homo sapiens, UniProt P10276); assay: Delta-MTV constructs, RA induction in CV-1 cells with cotransfected RAR expression vector; format: cell-based; conditions: Delta-MTV-CAT constructs; CV-1 cells
# T2 construct: expressed in transfected cells; host or cells: CV-1 (monkey kidney)
# T2 sequence (P10276 1-462): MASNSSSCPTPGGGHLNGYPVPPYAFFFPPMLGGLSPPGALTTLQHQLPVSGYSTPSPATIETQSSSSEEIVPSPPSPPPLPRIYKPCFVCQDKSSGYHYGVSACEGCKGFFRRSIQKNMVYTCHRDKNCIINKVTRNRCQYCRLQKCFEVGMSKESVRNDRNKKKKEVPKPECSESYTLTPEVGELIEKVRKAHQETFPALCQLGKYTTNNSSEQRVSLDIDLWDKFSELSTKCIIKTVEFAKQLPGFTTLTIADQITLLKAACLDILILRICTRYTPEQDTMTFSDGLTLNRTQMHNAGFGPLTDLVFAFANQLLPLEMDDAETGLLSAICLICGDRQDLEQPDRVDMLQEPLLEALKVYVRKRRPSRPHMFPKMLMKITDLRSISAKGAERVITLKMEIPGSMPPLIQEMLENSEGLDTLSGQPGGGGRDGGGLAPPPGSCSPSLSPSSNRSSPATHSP
# ER = target: T3, ER (Homo sapiens, UniProt P03372); assay: Cotransfection of ER with construct βRE1 in CV-1 cells; format: cell-based; conditions: absence or addition of the appropriate ligand
# T3 construct: expressed in transfected cells; host or cells: CV-1 (monkey kidney)
# T3 sequence (P03372 1-595): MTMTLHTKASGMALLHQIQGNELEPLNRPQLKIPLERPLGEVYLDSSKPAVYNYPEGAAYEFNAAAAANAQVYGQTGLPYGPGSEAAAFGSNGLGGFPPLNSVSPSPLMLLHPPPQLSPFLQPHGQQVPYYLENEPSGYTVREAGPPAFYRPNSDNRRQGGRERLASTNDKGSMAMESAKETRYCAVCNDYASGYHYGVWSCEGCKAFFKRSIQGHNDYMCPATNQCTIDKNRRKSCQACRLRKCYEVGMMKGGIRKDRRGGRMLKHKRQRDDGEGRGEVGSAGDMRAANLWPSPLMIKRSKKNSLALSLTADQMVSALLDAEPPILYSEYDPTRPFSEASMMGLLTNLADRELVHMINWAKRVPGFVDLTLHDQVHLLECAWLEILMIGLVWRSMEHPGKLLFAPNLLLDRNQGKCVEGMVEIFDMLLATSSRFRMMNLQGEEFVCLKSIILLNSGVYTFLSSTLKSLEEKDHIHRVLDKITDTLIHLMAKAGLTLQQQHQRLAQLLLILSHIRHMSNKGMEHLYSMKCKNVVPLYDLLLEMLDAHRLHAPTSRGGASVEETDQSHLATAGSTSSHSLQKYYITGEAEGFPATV
# Source text: as §1
# endogenous RA receptor = assay: Delta-MTV-CAT constructs, RA induction in CV-1 cells without cotransfected RAR expression vector; format: cell-based, monkey
# Description: Cells were transfected in 10 cm dishes with 10 μg of DNA containing 5 μg of reporter plasmid, 1-2 μg of either RSV-LUC (a), or RSV-βGAL or pCH110 (c and d), pGEM4 as carrier DNA, and for the experiments shown in a and d, 1 μg of RSV-RAR expression vector or the same amount of an RSV vector generating a nonsense transcript. Cells were harvested 1 day after addition of retinoic acid. All CAT assays represent equivalent amounts of β-galactosidase activity; β-GAL assays were normalized to luciferase activity.
# [1] = target: T4, vitamin D receptor (VD3R) (Homo sapiens, UniProt P11473); assay: Cotransfection of vitamin D receptor with construct βRE1 in CV-1 cells; format: cell-based; conditions: cognate ligand
# T4 construct: expressed in transfected cells; host or cells: CV-1 (monkey kidney)
# T4 sequence (P11473 1-427): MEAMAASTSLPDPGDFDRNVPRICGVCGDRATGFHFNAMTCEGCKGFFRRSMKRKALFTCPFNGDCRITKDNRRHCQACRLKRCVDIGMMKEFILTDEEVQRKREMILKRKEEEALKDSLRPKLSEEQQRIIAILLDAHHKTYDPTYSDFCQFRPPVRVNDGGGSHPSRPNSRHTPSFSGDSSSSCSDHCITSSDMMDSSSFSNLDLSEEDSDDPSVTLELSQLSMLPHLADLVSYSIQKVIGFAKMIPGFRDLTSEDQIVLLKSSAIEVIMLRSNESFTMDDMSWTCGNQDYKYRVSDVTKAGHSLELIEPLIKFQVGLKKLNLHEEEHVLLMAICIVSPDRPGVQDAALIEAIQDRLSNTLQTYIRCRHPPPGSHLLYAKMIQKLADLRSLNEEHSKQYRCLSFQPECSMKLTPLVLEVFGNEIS
# Source text: as §1
# VDR = target: T5, VDR (Homo sapiens, UniProt P11473); assay: Gel retardation DNA-binding assay with VDR-expressing COS cell extracts; set-up: expressed in transfected cells; host or cells: COS cells (whole-cell extract); conditions: VDR COS cell extract
# T5 sequence (P11473 1-427): T4 sequence (P11473 1-427)
# Description: For DNA binding assays, COS cells were cultured in DMEM with 10% calf bovine serum and transfected by the calcium phosphate method with 20 μg of the pCMX receptor expression plasmid for 6 hours followed by a glycerol shock. After incubating the transfected COS cells for another 48 hours, the cells were harvested to prepare extracts for the DNA binding assay, carried out as described by Damm et al., Nature 339: 593-597 (1989). The extracts were made in 20 mM HEPES (pH 7.4), 0.4 M KCl, 2 mM DTT and 20% glycerol. A similar method was employed to prepare a whole cell extract from F9 stem cells. For the binding, 5 μg (COS) or 10 μg (F9) of proteins was incubated on ice for 20 minutes, first in 20 mM HEPES, 80 mM KCl, 1 mM DTT, 0.1% NP40, 2.5 μg of poly dI/dC, and 10% glycerol (cold competitor oligonucleotides, when included, were added during this pre-incubation period). Then 40 fmole of ^32P-labeled oligonucleotide probe (1-2×10^5 cpm, prepared by filling-in reaction using Klenow polymerase in the presence of α-^32P-dCTP) was added to the reaction mixture, followed by incubation at room temperature for 30 minutes. The receptor-DNA complexes were resolved by electrophoresis through 5% polyacrylamide gel containing 5% glycerol at 6 V/cm at room temperature.
# Finally, in vitro DNA-binding assays were carried out with COS cell extracts containing one of these receptor proteins.
# RARα = target: T6, RARα (Homo sapiens, UniProt P10276); assay: ΔSV-CAT reporter cotransfection assay in CV-1 cells with RARα expression plasmid, ±RA; format: cell-based; set-up: expressed in transfected cells; host or cells: CV-1 (monkey kidney); conditions: RA 1 μM
# T6 sequence (P10276 1-462): T2 sequence (P10276 1-462)
# Source text: Receptor expression plasmids used in the following cotransfection assays have been described previously (pRShTRβ [see Thompson, et al., Proc. Natl. Acad. Sci. U.S.A. 86: 3494-3498 (1989)]; pRShRARα [see Giguere, et al., Nature 330: 624-629 (1987)]; pRShRARβ and pRshRARγ [see Ishikawa, et al., Mol. Endocrinol, 4: 837-844 (1990)]; and pRShVDR, [Schule, et al., Cell 61: 497-504 (1990)]. A basal reporter plasmid ΔSV-CAT was constructed by replacing the TK promoter in TK-CAT [Damm, et al., Nature 339: 593-597 (1989)] with the SphI-HindIII fragment of the SV40 early promoter. All of the recombinant CAT reporter plasmids used herein harbor a single copy of the indicated oligonucleotides at the unique HindIII site upstream of the SV40 promoter. Identity of the inserted oligonucleotides was confirmed by sequencing. To improve production of receptor proteins in COS cells, a new eukaryotic expression vector pCMX was prepared by modifying the plasmid CDM8 [Seed, B., Nature 329: 840-842 (1987)]. The CDM8 was cut with MluI and StuI in order to release the DNA fragment encoding the CMV/T7 promoter, SV40 small t intron/poly A signal, polyoma virus enhancer/origin, and SV40 enhancer/origin. The resulting fragment was ligated to a larger fragment of PvuII-digested PUC19. An internal deletion was introduced between unique BamHI and BclI sites present in the DCM8 portion. The stuffer sequence flanked by XbaI sites was replaced with a synthetic polylinker coding for 5′-KpnI/Asp718-EcoRV-BamHI -MscI-NheI-3′, followed by a stretch of 5′-[…]-3′ (SEQ ID NO:48) which can function as a universal termination signal for protein translation. The coding sequence of the luciferase [de Wet, et al., Mol. Cell. Biol. 7: 725-737 (1987)] and human TRβ, RARα, and VDR was placed in the polylinker region of the pCMX, generating pCMX-LUC, Pcmx-Htrβ, pCMX-hRARα, and pCMX-hVDR, respectively. The translation start site of the RARα was modified to […] by attaching the synthetic linker encoding a consensus translation start signal [Hollenberg, et al., Cell 55: 899-906 (1988)]. […]
substance,measurement,setting,value
"5′-AAGCTTAAG-GGTTCA-CCGAA-AGTTCA-CACGCATATATTAGCTT-3′ (SEQ ID NO:5) (AAGCTTAAGGGTTCACCGAAAGTTCACTCGCATATATTAGCTT; DNA, backbone not given here) [βRE1, oligonucleotide including the β retinoic acid response element]","activation with cotransfected TR, fold less",TR,10- to 20 fold
same,activation with cotransfected GR,GR,failed to result in appreciable activation
same,increase of induction by cotransfection of RAR-alpha expression vector,RAR,two-fold
same,activation with cotransfected ER,ER,failed to result in appreciable activation
same,RA-dependent induction in the absence of cotransfected RAR expression vector,endogenous RA receptor,robust RA-dependent induction
same,"activation with cotransfected vitamin D receptor, fold less",[1],10- to 20 fold
"DR-3: perfect tandem repeat of AGGTCA hexamers separated by 3 nucleotides (SEQ ID NO:25) (AGCTTCAGGTCAAGGAGGTCAGAGAGCT; DNA, backbone not given here; double-stranded DNA response element with agct overhangs, cloned into reporter)",VDR binding to labeled oligonucleotide probe,VDR,specific protein-DNA complex
same,RA response (in words),RARα,clear activity
